IC50 data for four compounds are collected here from BindingDB's records for patent US9862711 (Novartis, 2018).

SMILES strings stand for the structures.

The target in the test is Phosphatidylinositol 4-kinase beta (Homo sapiens, UniProt Q9UBF8). As to the kind of experiment: Kinase Glo Luminescent Kinase Assay. The text has this: PI 3-Kinase Alpha (A), Pb 3-Kinase Beta (B), Vps34 (C), PI 4-Kinase Beta (D):The luminescence-based ATP detection reagent KinaseGlo was obtained from Promega, (Cat. No. V6714, Lot No. 236161) through Catalys, Wallisellen, Switzerland. L-alpha-phosphatidylinositol (PI, liver, bovine) was obtained from Avanti Polar Lipid (Cat. No. 840042C, Lot#LPI-274), Phosphatidylinositol-4,5-bisphosphate (PIP(4,5)2) was also obtained from Avanti Polar Lipid (Cat. No. 840046X). L-α-Phosphatidylserine (PS) was obtained from Avanti Polar Lipid (Cat. No. 840032C), n-Octylglucoside from Avanti Polar Lipid (Cat. No. 10634425001). Luminescence is a well established readout to determine ATP concentrations and can thus be used to follow the activity of many kinases regardless of their substrate. The Kinase Glo Luminescent Kinase Assay (Promega, Madison/WI, USA) is a homogeneous HTS method of measuring kinase activity by quantifying the amount of ATP remaining in solution following a kinase reaction.
Phosphatidylinositol 4-kinase beta, sequence (Q9UBF8 whole entry): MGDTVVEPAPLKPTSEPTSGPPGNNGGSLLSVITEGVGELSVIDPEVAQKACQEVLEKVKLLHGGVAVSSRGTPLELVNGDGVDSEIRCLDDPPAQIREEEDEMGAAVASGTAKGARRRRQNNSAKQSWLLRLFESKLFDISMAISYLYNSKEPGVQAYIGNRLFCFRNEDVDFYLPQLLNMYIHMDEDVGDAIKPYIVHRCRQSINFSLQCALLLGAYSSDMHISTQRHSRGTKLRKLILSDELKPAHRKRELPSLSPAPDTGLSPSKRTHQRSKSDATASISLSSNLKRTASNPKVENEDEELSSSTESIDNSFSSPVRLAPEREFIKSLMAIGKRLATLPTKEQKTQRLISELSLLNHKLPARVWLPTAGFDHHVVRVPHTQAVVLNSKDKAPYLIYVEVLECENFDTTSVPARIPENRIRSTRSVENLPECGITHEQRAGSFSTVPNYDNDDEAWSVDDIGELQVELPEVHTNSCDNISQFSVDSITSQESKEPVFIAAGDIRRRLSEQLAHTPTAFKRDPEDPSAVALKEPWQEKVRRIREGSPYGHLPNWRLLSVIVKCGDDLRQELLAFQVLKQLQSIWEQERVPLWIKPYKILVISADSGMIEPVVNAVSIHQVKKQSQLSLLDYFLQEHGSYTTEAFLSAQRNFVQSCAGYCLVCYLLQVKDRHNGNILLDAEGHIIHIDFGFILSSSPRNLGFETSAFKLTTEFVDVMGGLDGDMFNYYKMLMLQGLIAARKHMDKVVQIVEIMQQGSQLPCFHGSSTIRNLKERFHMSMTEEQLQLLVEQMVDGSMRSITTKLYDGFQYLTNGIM
The compound `Cc1cc(-c2cncc(-c3cc(S(=O)(=O)NC[C@H]4C[C@@H](O)C4)ccc3C)n2)n(C)n1` [US9862711, Example 13] showed an IC50 greater than 9.55 µM.
`Cc1ccc(S(=O)(=O)NC[C@H]2C[C@@H](O)C2)cc1-c1cncc(-c2cn(C)nc2C)n1` [US9862711, Example 7]: the IC50 is greater than 10 µM.
For `Cc1ccc(S(=O)(=O)NC2CC3(CC(O)C3)C2)cc1-c1cncc(-c2cn(C)nc2C)n1` (centres undefined) [US9862711, Example 6], the IC50 is greater than 10 µM.
Take `Cc1ccc(S(=O)(=O)N[C@H]2CC[C@H](O)CC2)cc1-c1cncc(-c2csc(CN3CCOCC3)c2)n1` [US9862711, Example 12]: the IC50 is greater than 9.1 µM.
